Test results taken from patent publication US6506928B1, “Dendrimeric fullerene derivatives, process for their preparation, and use as neuroprotectants” (Siemens Axiva GmbH & Co. KG, priority 1998, dated 2003).
Values after ≈ are worked out from the molar mass of the structure shown.

Experiments:
physchem = assay: physchem
Procedure: The dendrimer fullerene 1 of second generation [18-cascade:methano-C60-fullerene[2]:(2-aza-7-oxa-3,8-dioxooctylidyne):(2-aza-3-oxopentylidyne):propanoic acid] (cf. preparation example 1) is prepared (Scheme 3) analogously to the synthesis of the derivative of first generation 8 shown in Scheme 2. As in the first case, the tert-butyl-protected γ-aminotriscarboxylic acid 3 is reacted with the appropriate nitrotriscarboxylic acid 9, whose tert-butyl ester is the synthesis precursor of 3 (15, 16), using DCC in the presence of 1HO-BT and subsequent reduction with hydrogen to the dendron 10 of second generation [9-cascade:aminomethane[3]:(2-aza-3-oxopentylidyne):tert-butyl propanoate]. […] The analogous removal of the protective groups leads to the dendrimer fullerene 1 of the second generation.

apoptotic neural death = details: induced by serum withdrawal or exposure of Aβ1-42 protein; literature /12/; cited from earlier work

Compound	solubility (in words) (physchem)	solubility (physchem; 25 °C, pH 7, aqueous buffer) [mg/mL]	solubility (physchem; pH 10, aqueous buffer) [mg/mL]	reduction of apoptotic neural death (apoptotic neural death)
O=CCCC(CCC(=O)O)(CCC(=O)O)NC(=O)CCC(CCC(=O)NC(CCC(=O)O)(CCC(=O)O)CCC(=O)O)(CCC(=O)NC(CCC(=O)O)(CCC(=O)O)CCC(=O)O)NC(=O)CCCOC(=O)C1(C(=O)OCCCC(=O)NC(CCC(=O)NC(CCC(=O)O)(CCC(=O)O)CCC(=O)O)(CCC(=O)NC(CCC(=O)O)(CCC(=O)O)CCC(=O)O)CCC(=O)NC(CCC(=O)O)(CCC(=O)O)CCC(=O)O)C2c3cc4c5c6c(cc7ccc8cc9c%10c%11c(cc(c%12c3c5c(c%12%11)c3c6c7c8c%103)C21)C9)C4 (stereo not shown) [compound 1, 18-cascade:methano-C60-fullerene[2]:(2-aza-7-oxa-3,8-dioxooctylidyne):(2-aza-3-oxopentylidyne):propanoic acid]	very readily soluble	~34 (≈ 13.7 mM)	~250 (≈ 100 mM)	–
C60[C(COOH)2]3 [C3-symmetrical derivative]	–	–	–	reduced apoptotic neural death
